How the values were obtained:
Assay type in all cases: cell-based
OVCAR-4 = test: NCI single dose screening (10 µM); details: Homo sapiens; OVCAR-4, Ovarian cancer, single dose 10^−5 M; read-out: GI% (cell growth inhibition percentage)
OVCAR-8 = test: NCI single dose screening (10 µM); details: Homo sapiens; OVCAR-8, Ovarian cancer, single dose 10^−5 M; read-out: GI% (cell growth inhibition percentage)
NCI-H522 = test: NCI single dose screening (10 µM); details: Homo sapiens; NCI-H522, Non-small cell lung cancer, single dose 10^−5 M; read-out: GI% (cell growth inhibition percentage)
HOP-62 = test: NCI single dose screening (10 µM); details: Homo sapiens; HOP-62, Non-small cell lung cancer, single dose 10^−5 M; read-out: GI% (cell growth inhibition percentage)
HOP-92 = test: NCI single dose screening (10 µM); details: Homo sapiens; HOP-92, Non-small cell lung cancer, single dose 10^−5 M; read-out: GI% (cell growth inhibition percentage)
HCT-15 = test: NCI single dose screening (10 µM); details: Homo sapiens; HCT-15, Colon cancer, single dose 10^−5 M; read-out: GI% (cell growth inhibition percentage)
786-0 = test: NCI single dose screening (10 µM); details: Homo sapiens; 786-0, Renal cancer, single dose 10^−5 M; read-out: GI% (cell growth inhibition percentage)
MOLT-4 = test: NCI single dose screening (10 µM); details: Homo sapiens; MOLT-4, Leukaemia, single dose 10^−5 M; read-out: GI% (cell growth inhibition percentage)
U251 = test: NCI single dose screening (10 µM); details: Homo sapiens, U-251; U251, CNS cancer, single dose 10^−5 M; read-out: GI% (cell growth inhibition percentage)
BT-549 = test: NCI single dose screening (10 µM); details: Homo sapiens; BT-549, Breast cancer, single dose 10^−5 M; read-out: GI% (cell growth inhibition percentage)
IGROV1 = test: NCI single dose screening (10 µM); details: Homo sapiens, IGROV-1; IGROV1, Ovarian cancer, single dose 10^−5 M; read-out: GI% (cell growth inhibition percentage)
UACC-62 = test: NCI single dose screening (10 µM); details: Homo sapiens; UACC-62, Melanoma, single dose 10^−5 M; read-out: GI% (cell growth inhibition percentage)
NCI/ADR-RES = test: NCI single dose screening (10 µM); details: Homo sapiens, Ovarian cancer, single dose 10^−5 M, read-out: GI% (cell growth inhibition percentage)
MDA-MB-468 = test: NCI single dose screening (10 µM); details: Homo sapiens; MDA-MB-468, Breast cancer, single dose 10^−5 M; read-out: GI% (cell growth inhibition percentage)
HCC-2998 = test: NCI single dose screening (10 µM); details: Homo sapiens; HCC-2998, Colon cancer, single dose 10^−5 M; read-out: GI% (cell growth inhibition percentage)
SF-268 = test: NCI single dose screening (10 µM); details: Homo sapiens; SF-268, CNS cancer, single dose 10^−5 M; read-out: GI% (cell growth inhibition percentage)
HT-29 = test: NCI single dose screening (10 µM); details: Homo sapiens; HT-29, Colon cancer, single dose 10^−5 M; read-out: GI% (cell growth inhibition percentage)
SR = test: NCI single dose screening (10 µM); details: Homo sapiens, Leukaemia, single dose 10^−5 M, read-out: GI% (cell growth inhibition percentage)
EKVX = test: NCI single dose screening (10 µM); details: Homo sapiens, Non-small cell lung cancer, single dose 10^−5 M, read-out: GI% (cell growth inhibition percentage)
DU-145 = test: NCI single dose screening (10 µM); details: Homo sapiens; DU-145, Prostate cancer, single dose 10^−5 M; read-out: GI% (cell growth inhibition percentage)
HS 578 T = test: NCI single dose screening (10 µM); details: Homo sapiens; HS 578 T, Breast cancer, single dose 10^−5 M; read-out: GI% (cell growth inhibition percentage)
SK-MEL-28 = test: NCI single dose screening (10 µM); details: Homo sapiens; SK-MEL-28, Melanoma, single dose 10^−5 M; read-out: GI% (cell growth inhibition percentage)
NCI-H460 = test: NCI single dose screening (10 µM); details: Homo sapiens; NCI-H460, Non-small cell lung cancer, single dose 10^−5 M; read-out: GI% (cell growth inhibition percentage)
CCRF-CEM = test: NCI single dose screening (10 µM); details: Homo sapiens, Leukaemia, single dose 10^−5 M, read-out: GI% (cell growth inhibition percentage)
[1] = system: NCI-55 cancer cell line panel; test: NCI single dose screening (10 µM), whole panel; details: Homo sapiens; mean over NCI-55 cell lines, single dose 10^−5 M; read-out: Mean inhibition, % (mean GI%)
MALME-3M = test: NCI single dose screening (10 µM); details: Homo sapiens; MALME-3M, Melanoma, single dose 10^−5 M; read-out: GI% (cell growth inhibition percentage)
SK-MEL-2 = test: NCI single dose screening (10 µM); details: Homo sapiens; SK-MEL-2, Melanoma, single dose 10^−5 M; read-out: GI% (cell growth inhibition percentage)
PC-3 = test: NCI single dose screening (10 µM); details: Homo sapiens; PC-3, Prostate cancer, single dose 10^−5 M; read-out: GI% (cell growth inhibition percentage)
KM12 = test: NCI single dose screening (10 µM); details: Homo sapiens; KM12, Colon cancer, single dose 10^−5 M; read-out: GI% (cell growth inhibition percentage)
M14 = test: NCI single dose screening (10 µM); details: Homo sapiens; M14, Melanoma, single dose 10^−5 M; read-out: GI% (cell growth inhibition percentage)
SNB-19 = test: NCI single dose screening (10 µM); details: Homo sapiens; SNB-19, CNS cancer, single dose 10^−5 M; read-out: GI% (cell growth inhibition percentage)
UACC-257 = test: NCI single dose screening (10 µM); details: Homo sapiens; UACC-257, Melanoma, single dose 10^−5 M; read-out: GI% (cell growth inhibition percentage)

## Cc1c(C(=O)N/N=C2\C(=O)Nc3ccc(F)cc32)oc2ccccc12 [Compound 5b]
OVCAR-4
  inhibition at 10 µM: < 10%
OVCAR-8
  inhibition at 10 µM: < 10%
NCI-H522
  inhibition at 10 µM: 10.4%
HOP-62
  inhibition at 10 µM: < 10%
HOP-92
  inhibition at 10 µM: < 10%
HCT-15
  inhibition at 10 µM: < 10%
786-0
  inhibition at 10 µM: < 10%
MOLT-4
  inhibition at 10 µM: < 10%
U251
  inhibition at 10 µM: < 10%
BT-549
  inhibition at 10 µM: < 10%
IGROV1
  inhibition at 10 µM: 33.7%
UACC-62
  inhibition at 10 µM: 10.9%
NCI/ADR-RES
  inhibition at 10 µM: < 10%
MDA-MB-468
  inhibition at 10 µM: < 10%
HCC-2998
  inhibition at 10 µM: < 10%
SF-268
  inhibition at 10 µM: < 10%
HT-29
  inhibition at 10 µM: < 10%
SR
  inhibition at 10 µM: < 10%
EKVX
  inhibition at 10 µM: 29.6%
DU-145
  inhibition at 10 µM: < 10%
HS 578 T
  inhibition at 10 µM: < 10%
SK-MEL-28
  inhibition at 10 µM: < 10%
NCI-H460
  inhibition at 10 µM: < 10%
CCRF-CEM
  inhibition at 10 µM: < 10%
[1]
  inhibition at 10 µM: 0.75%
MALME-3M
  inhibition at 10 µM: 12.4%
SK-MEL-2
  inhibition at 10 µM: < 10%
PC-3
  inhibition at 10 µM: < 10%
KM12
  inhibition at 10 µM: < 10%
M14
  inhibition at 10 µM: < 10%
SNB-19
  inhibition at 10 µM: < 10%
UACC-257
  inhibition at 10 µM: < 10%

## Cc1c(C(=O)N/N=C2\C(=O)Nc3ccc(Br)cc32)oc2ccccc12 [Compound 5c]
OVCAR-4
  inhibition at 10 µM: 31%
OVCAR-8
  inhibition at 10 µM: 22.5%
NCI-H522
  inhibition at 10 µM: 10.3%
HOP-62
  inhibition at 10 µM: 41.4%
HOP-92
  inhibition at 10 µM: 26.5%
HCT-15
  inhibition at 10 µM: < 10%
786-0
  inhibition at 10 µM: 34.7%
MOLT-4
  inhibition at 10 µM: < 10%
U251
  inhibition at 10 µM: 42.6%
BT-549
  inhibition at 10 µM: 22.1%
IGROV1
  inhibition at 10 µM: 44.6%
UACC-62
  inhibition at 10 µM: 30.9%
NCI/ADR-RES
  inhibition at 10 µM: 29.3%
MDA-MB-468
  inhibition at 10 µM: < 10%
HCC-2998
  inhibition at 10 µM: < 10%
SF-268
  inhibition at 10 µM: 11.7%
HT-29
  inhibition at 10 µM: < 10%
SR
  inhibition at 10 µM: 17.6%
EKVX
  inhibition at 10 µM: 32.1%
DU-145
  inhibition at 10 µM: 17%
HS 578 T
  inhibition at 10 µM: 46.3%
SK-MEL-28
  inhibition at 10 µM: < 10%
NCI-H460
  inhibition at 10 µM: 42.6%
CCRF-CEM
  inhibition at 10 µM: < 10%
[1]
  inhibition at 10 µM: 22%
MALME-3M
  inhibition at 10 µM: 64.9%
SK-MEL-2
  inhibition at 10 µM: < 10%
PC-3
  inhibition at 10 µM: 13.8%
KM12
  inhibition at 10 µM: 20.5%
M14
  inhibition at 10 µM: 25.4%
SNB-19
  inhibition at 10 µM: 31.5%
UACC-257
  inhibition at 10 µM: < 10%

## COc1ccc2c(c1)/C(=N/NC(=O)c1oc3ccccc3c1C)C(=O)N2 [Compound 5d]
OVCAR-4
  inhibition at 10 µM: 153%
OVCAR-8
  inhibition at 10 µM: 62.2%
NCI-H522
  inhibition at 10 µM: 45.7%
HOP-62
  inhibition at 10 µM: 124%
HOP-92
  inhibition at 10 µM: 144%
HCT-15
  inhibition at 10 µM: 50.9%
786-0
  inhibition at 10 µM: 167%
MOLT-4
  inhibition at 10 µM: 49.1%
U251
  inhibition at 10 µM: 98%
BT-549
  inhibition at 10 µM: 29.9%
IGROV1
  inhibition at 10 µM: 93.7%
UACC-62
  inhibition at 10 µM: 65.7%
NCI/ADR-RES
  inhibition at 10 µM: 69.5%
MDA-MB-468
  inhibition at 10 µM: 80.1%
HCC-2998
  inhibition at 10 µM: 56.5%
SF-268
  inhibition at 10 µM: 42.3%
HT-29
  inhibition at 10 µM: 72.7%
SR
  inhibition at 10 µM: 56.5%
EKVX
  inhibition at 10 µM: 62.7%
DU-145
  inhibition at 10 µM: 82.4%
HS 578 T
  inhibition at 10 µM: 74.5%
SK-MEL-28
  inhibition at 10 µM: 84.2%
NCI-H460
  inhibition at 10 µM: 123%
CCRF-CEM
  inhibition at 10 µM: 42.9%
[1]
  inhibition at 10 µM: 87.3%
MALME-3M
  inhibition at 10 µM: 129%
SK-MEL-2
  inhibition at 10 µM: 29.1%
PC-3
  inhibition at 10 µM: 78.2%
KM12
  inhibition at 10 µM: 56.2%
M14
  inhibition at 10 µM: 71.3%
SNB-19
  inhibition at 10 µM: 57.3%
UACC-257
  inhibition at 10 µM: 50%

## Cc1c(C(=O)N/N=C2\C(=O)N(C)c3ccccc32)oc2ccccc12 [Compound 7a]
OVCAR-4
  inhibition at 10 µM: < 10%
OVCAR-8
  inhibition at 10 µM: < 10%
NCI-H522
  inhibition at 10 µM: < 10%
HOP-62
  inhibition at 10 µM: < 10%
HOP-92
  inhibition at 10 µM: < 10%
HCT-15
  inhibition at 10 µM: < 10%
786-0
  inhibition at 10 µM: < 10%
MOLT-4
  inhibition at 10 µM: < 10%
U251
  inhibition at 10 µM: < 10%
BT-549
  inhibition at 10 µM: < 10%
IGROV1
  inhibition at 10 µM: 32.8%
UACC-62
  inhibition at 10 µM: < 10%
NCI/ADR-RES
  inhibition at 10 µM: < 10%
MDA-MB-468
  inhibition at 10 µM: < 10%
HCC-2998
  inhibition at 10 µM: < 10%
SF-268
  inhibition at 10 µM: < 10%
HT-29
  inhibition at 10 µM: < 10%
SR
  inhibition at 10 µM: < 10%
EKVX
  inhibition at 10 µM: 25.1%
DU-145
  inhibition at 10 µM: < 10%
HS 578 T
  inhibition at 10 µM: < 10%
SK-MEL-28
  inhibition at 10 µM: < 10%
NCI-H460
  inhibition at 10 µM: < 10%
CCRF-CEM
  inhibition at 10 µM: < 10%
[1]
  inhibition at 10 µM: 0.09%
MALME-3M
  inhibition at 10 µM: < 10%
SK-MEL-2
  inhibition at 10 µM: < 10%
PC-3
  inhibition at 10 µM: < 10%
KM12
  inhibition at 10 µM: < 10%
M14
  inhibition at 10 µM: < 10%
SNB-19
  inhibition at 10 µM: < 10%
UACC-257
  inhibition at 10 µM: < 10%
